{"source": "patent US20110288017A1", "about": "“APO-LIPOPROTEIN PROPEPTIDE” (priority 2010, published 2011)", "key": {"[1]": {"experiment": "Modified Western blot: native PAGE gel of liver lysate incubated with fluorescent propeptide", "type": "binding, rat", "settings": "FIG. 4", "text": "(§1) Rat liver tissue from an old (23 months) rat and mouse liver tissue from a young mouse (3 months) was obtained from Dr. Eric R. Blough (Biology department, Marshall University, Huntington, W. Va.). 0.104 g of liver tissue from the young mouse and 0.20 g of tissue from the old rat were placed in separate microcentrifuge tubes and washed thoroughly with phosphate buffered saline (“PBS”).\n(§2) Rat liver tissue was lysed using CellLytic-MT lysis buffer (Sigma) following the procedure provided from Sigma. Along with the lysis buffer, a protease inhibitor cocktail containing pepstatin, aprotinin, and leupeptin was added. The samples were then centrifuged for 15 minutes at 14,000 rpm. Supernatant containing the cellular proteins was pulled from the samples and centrifuged for another 10 minutes.\n(§3) Proteins from the lysate were separated by Native PAGE on a 12% polyacrylamide gel. The gel was run using Tris/Glycine running buffer for one hour at 200 V.\n(§4) After protein separation by PAGE was complete, a picture of the gel was taken using an ultraviolet (“UV”) lamp to excite any fluorescent molecules. The UV exposure time was 20 s. The gel was then incubated with the fluorescent labeled Apo AI propeptide in Tris buffered saline with 5% Tween (“TBST”) overnight on a rocking platform. Another picture of the gel was taken using the same UV exposure time as the initial picture. […]"}, "[2]": {"experiment": "Modified Western blot: native PAGE gel of liver lysate incubated with fluorescent propeptide", "type": "binding", "settings": "young mouse (3 months) liver lysate, FIG. 5 Arrow 1", "text": "as §1, §2, §3, §4"}, "Zucker rat liver cells": {"system": "Zucker rat liver cells", "experiment": "Confocal microscopy of liver cells treated with fluorescently labeled propeptide", "type": "cell-based", "text": "(§5) A peptide with the amino acid sequence WEFWQQ (corresponding to the rat sequence of the Apo AI propeptide) containing a fluorescein group attached to the N-terminus was custom synthesized by Cambridge biochemical reagents. Synthetic version of the peptide was made using standard Merrifield peptide synthesis techniques (http://en.wikipedia.org/wiki/Peptide_synthesis). Other standard techniques that would apply here would be the use of bacteria to synthesize large quantities of the peptide (http://en.wikipedia.org/wiki/Recombinant_DNA).\n(§6) Liver tissue was obtained from lean Zucker rats and placed in liver digest media. The liver digest media was then drained into a conical vial and the liver was placed in another sterile beaker of hepatozyme wash media. Clean gauze was placed at the opening to the conical vials and the liver was washed with the hepatozyme wash media yet again. This process filtered the liver cells into the conical vials. The cells were centrifuged for five minutes at 6000 rpm. The cells were washed thoroughly with hepatozyme wash media and then resuspended in 5% Fetal Bovine Serum, 2 mM glutamine hepatozyme wash medium and pipetted into collagen wells. The collagen well plates were incubated at 37° Celsius and 5% CO2. After 19 hours, the media was replaced with clean, fresh Hepatozyme-SFM (3 mL). The media was further supplemented with L-glutamine (2 mM) after 23 hours. […]"}, "human epithelial cells": {"system": "human epithelial cells", "experiment": "Confocal microscopy of epithelial cells treated with fluorescently labeled propeptide", "type": "cell-based", "text": "as §5, §6"}, "oxysterol receptor LXRβ": {"target": "T1, oxysterol receptor LXRβ (Rattus norvegicus, UniProt Q62755)", "T1 construct": "Liver tissue from a lean Zucker rat was lysed; from tissue; host or cells: liver of lean Zucker rat (lysate, CellLytic-MT buffer)", "T1 sequence (Q62755 1-446)": "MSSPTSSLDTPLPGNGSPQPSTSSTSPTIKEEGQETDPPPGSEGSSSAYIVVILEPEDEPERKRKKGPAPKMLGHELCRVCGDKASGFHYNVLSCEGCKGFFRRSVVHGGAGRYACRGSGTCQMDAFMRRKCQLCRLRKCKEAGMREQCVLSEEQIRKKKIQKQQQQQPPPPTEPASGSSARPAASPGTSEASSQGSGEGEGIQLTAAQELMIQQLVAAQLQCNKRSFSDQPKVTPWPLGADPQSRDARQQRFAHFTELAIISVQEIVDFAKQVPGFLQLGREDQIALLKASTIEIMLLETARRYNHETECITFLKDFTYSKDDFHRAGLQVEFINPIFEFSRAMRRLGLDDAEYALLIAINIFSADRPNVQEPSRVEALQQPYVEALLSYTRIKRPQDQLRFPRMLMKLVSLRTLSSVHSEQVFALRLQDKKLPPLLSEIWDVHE", "experiment": "Peptide bead pull-down from liver lysate, SDS-PAGE, MALDI-TOF peptide mass fingerprint", "type": "binding", "settings": "lean Zucker rat liver lysate; peptide attached to benzyloxybenzylbromide resin at N-terminus; Mascot search; FIG. 6", "text": "The Apo AI propeptide was attached to benzyloxybenzylbromide resin at its N-terminus. Rat liver tissue was lysed using CellLytic-MT lysis buffer using the procedure outlined above. This buffer may be purchased from Sigma-Aldrich Corp. (“Sigma”) (St. Louis, Mo.). […] The protein lysate was removed and added to the peptide modified beads. The solution was shaken for one hour; the supernatant was then removed leaving only the resin beads. The resin beads were washed three times with PBS, and then 30 μl of gel loading solution was added to the resin beads. The solution was heated at 100° C. for five minutes and then loaded onto a polyacrylamide gel (4-20% polyacrylamide) and separated by SDS-PAGE.\nProtein bands of interest were cut from the gel and digested with trypsin overnight following the procedure used at University of California, San Francisco (http://donatello.ucsf.edu/ingel.html). The peptide fragments were analyzed on a Bruker MALDI-TOF mass spectrometer which provided the peptide fragment molecular weight maps of the proteins for protein identification.\nAnother set of experiments were designed to determine the identity of any proteins capable of binding to the Apo AI propeptide. The Apo AI propeptide, WEFWQQ, was attached to benzyloxybenzylbromide resin beads at its N-terminus. […]"}}}
{"substance": "WEFWQQ (PROPEP (1)..(6); listed as Rattus norvegicus)", "values": [{"measurement": "binding to a protein on the gel (new fluorescent band after incubation)", "setting": "[1]; old rat (23 months) liver lysate, overnight incubation", "result": "binding to a protein on the gel"}, {"measurement": "fluorescence of higher molecular weight band (possibly DNA) after peptide incubation", "setting": "[1]; old rat liver lysate", "result": "increase in the fluorescence intensity of a higher molecular weight band"}, {"measurement": "fluorescent band after incubation with the peptide", "setting": "[2]", "result": "same band as was seen in FIG. 4"}, {"measurement": "entry of the propeptide into cells and nucleus (confocal image)", "setting": "Zucker rat liver cells; Zucker rat liver cells, peptide labeled at N-terminus with fluorescein, FIG. 1", "result": "clearly entering the cells and entering the nucleus of the cells"}, {"measurement": "time to entry into cells after peptide application", "setting": "Zucker rat liver cells; liver cells, fluorescently labeled peptide", "result": "within seconds"}, {"measurement": "time to entry into cells after peptide application", "setting": "human epithelial cells", "result": "within seconds"}, {"measurement": "identity of the protein bound to the peptide beads (band at about 45 kDa)", "setting": "oxysterol receptor LXRβ", "result": "identified the protein as the oxysterol receptor LXRβ"}]}
